Experimental data reported in patent publication US9237747B2, “Herbicidal compositions comprising 4-amino-3-chloro-5-fluoro-6-(4-chloro-2-fluoro-3-methoxyphenyl) pyridine-2-carboxylic acid or a derivative thereof and insecticides” (priority 2013, dated 2016).
Where “and” joins values, the source holds several entries; their conditions need not be identical. Equal values may be shown once. Read-outs that look alike come from different tables or passages of the source.

Key:
CYPRO = assay: In-water applied weed control, transplanted paddy rice (greenhouse); type: in vivo, Cyperus rotundus
Procedure: (§1) Weed seeds or nutlets of the desired test plant species were planted in puddled soil (mud) prepared by mixing a shredded, non-sterilized mineral soil (50.5 percent silt, 25.5 percent clay, and 24 percent sand, with a pH of about 7.6 and an organic matter content of about 2.9 percent) and water at a 1:1 volumetric ratio. The prepared mud was dispensed in 365 mL aliquots into 16-ounce (oz.) non-perforated plastic pots with a surface area of 86.59 square centimeters (cm^2) leaving a headspace of 3 centimeters (cm) in each pot. Rice seeds were planted in Sun Gro MetroMix® 306 planting mixture, which typically has a pH of 6.0 to 6.8 and an organic matter content of about 30 percent, in plastic plug trays. Seedlings at the second or third leaf stage of growth were transplanted into 860 mL of mud contained in 32-oz. non-perforated plastic pots with a surface area of 86.59 cm^2 4 days prior to herbicide application. The paddy was created by filling the headspace of the pots with 2.5 to 3 cm of water. When required to ensure good germination and healthy plants, a fungicide treatment and/or other chemical or physical treatment was applied. The plants were grown for 4-22 days in a greenhouse with an approximate 14 h photoperiod which was maintained at about 29° C. during the day and about 26° C. during the night. Nutrients were added as Osmocote® (17:6:10, N:P:K+minor nutrients) at 2 grams (g) per 16-oz. pot and 4 g per 32-oz. pot. Water was added on a regular basis to maintain the paddy flood, and supplemental lighting was provided with overhead metal halide 1000-Watt lamps as necessary. The plants were employed for testing when they reached the first through fourth true leaf stage.
Treatments consisted of the acid or esters of 4-amino-3-chloro-5-fluoro-6-(4-chloro-2-fluoro-3-methoxy-phenyl)pyridine-2-carboxylic acid (compound A) each formulated as an SC (suspension concentrate) and various herbicidal components alone and in combination. Forms of compound A were applied on an acid equivalent basis.
Other […] components were applied on an active ingredient basis and consisted of etofenprox (technical grade material) and sulfoxaflor formulated as Sulfoxaflor WG.
(§2) Treatment requirements for each compound or herbicidal component were calculated based upon the rates being tested, the concentration of active ingredient or acid equivalent in the formulation, an application volume of 2 mL per component per pot, and an application area of 86.59 cm^2 per pot.
For formulated compounds, a measured amount was placed in an individual 100 or 200 mL glass vial and was dissolved in a volume of 1.25% (v/v) AgriDex® crop oil concentrate to obtain application solutions.
For technical grade compounds, a weighed amount was placed in an individual 100 to 200 mL glass vial and was dissolved in a volume of acetone to obtain concentrated stock solutions.
Applications were made by injecting with a pipetter appropriate amounts of the application solutions, individually and sequentially, into the aqueous layer of the paddy. Control plants were treated in the same manner with the solvent blank. Applications were made so that all treated plant material received the same concentrations of acetone and crop oil concentrate.
(§3) The treated plants and control plants were placed in a greenhouse as described above and water was added as needed to maintain a paddy flood. After approximately 3 weeks the condition of the test plants as compared with that of the untreated plants was determined visually and scored on a scale of 0 to 100 percent where 0 corresponds to no injury or growth inhibition and 100 corresponds to complete kill.
Colby's equation was used to determine the herbicidal effects expected from the mixtures (Colby, S. R. Calculation of the synergistic and antagonistic response of herbicide combinations. Weeds 1967, 15, 20-22.). […]

LEFCH = assay: as above; type: in vivo, Leptochloa chinensis
Procedure: as §1, with “stage. […]” for “stage.”
as §2
For formulated compounds, a measured amount was placed in an individual 100 or 200 mL glass vial and was dissolved in a volume of 1.25% (v/v) AgriDex® crop oil concentrate to obtain application solutions. […]
as §3, with “kill. […]” for “kill.”

ECHCG = type: in vivo, Echinochloa crus-galli
Procedure: Seeds or nutlets of the desired test plant species were planted in a soil matrix prepared by mixing a loam or sandy loam soil (e.g., 28.6 percent silt, 18.8 percent clay, and 52.6 percent sand, with a pH of about 5.8 and an organic matter content of about 1.8 percent) and calcareous grit in an 80 to 20 ratio. The soil matrix was contained in plastic pots with a volume of 1 quart and a surface area of 83.6 square centimeters (cm^2). […] The plants were grown for 8-22 days in a greenhouse with an approximate 14 hour (h) photoperiod which was maintained at about 29° C. during the day and 26° C. during the night. Nutrients (Peters Excel® 15-5-15 5-Ca 2-Mg and iron chelate) were applied in the irrigation solution as needed and water was added on a regular basis. Supplemental lighting was provided with overhead metal halide 1000-Watt lamps as necessary. The plants were employed for testing when they reached the first through fourth true leaf stage.
Treatments consisted of the acid or esters of 4-amino-3-chloro-6-(4-chloro-2-fluoro-3-methoxyphenyl)-5-fluoropyridine-2-carboxylic acid (Compound A), each formulated as an SC (suspension concentrate), and various insecticidal components alone and in combination. Forms of compound A were applied on an acid equivalent basis.
For treatments comprised of formulated compounds, measured amounts of compounds were placed individually in 25 mL glass vials and diluted in a volume of 1.25% volume per volume (v/v) Agri-Dex® crop oil concentrate to obtain 12× stock solutions. […] Application solutions were prepared by adding an appropriate amount of each stock solution (e.g., 1 mL) and diluted to the appropriate final concentrations with the addition of […] of an aqueous mixture of 1.25% (v/v) crop oil concentrate so that the final spray solutions contained 1.25+/−0.05% (v/v) crop oil concentrate.
As required, additional water and/or 97:3 v/v acetone/DMSO was added to individual application solutions so that the final acetone and DMSO concentrations of the application solutions being compared were 8.1% and 0.25%, respectively.
All stock solutions and applications solutions were visually inspected for compound compatibility prior to application. Spray solutions were applied to the plant material with an overhead Mandel track sprayer equipped with 8002E nozzles calibrated to deliver 187 L/ha over an application area of 0.503 square meters (m^2) at a spray height of 18 to 20 inches (46 to 50 cm) above average plant canopy height. Control plants were sprayed in the same manner with the solvent blank.
as §3, with “watered by sub-irrigation” for “water was added as needed”, “prevent wash-off of the test compounds.” for “maintain a paddy flood.”, “weeks,” for “weeks”, “to” for “with”
Colby's equation was used to determine the herbicidal effects expected from the mixtures (Colby, S. R. Calculation of the synergistic and antagonistic response of herbicide combinations. Weeds 1967, 15, 20-22.).
The following equation was used to calculate the expected activity of mixtures containing two active ingredients, A and B: Expected=A+B−(A×B/100)

COc1c(Cl)ccc(-c2nc(C(=O)OCc3ccccc3)c(Cl)c(N)c2F)c1F [Compound A Benzyl Ester]
Visual Weed Control (%) - 19 DAA CYPRO Obs (CYPRO; 8 g ae/ha alone): 20% | Visual Weed Control (%) - 19 DAA CYPRO Obs (CYPRO; 16 g ae/ha alone): 88% | Visual Weed Control (%) - 19 DAA CYPRO Obs (CYPRO; 32 g ae/ha alone): 87% | Visual Weed Control (%) - 21 DAA CYPRO Obs (CYPRO; 21 DAA, 8 g ae/ha alone): 40% | Visual Weed Control (%) - 19 DAA LEFCH Obs (LEFCH; 8 g ae/ha alone): 3% | Visual Weed Control (%) - 19 DAA LEFCH Obs (LEFCH; 16 g ae/ha alone): 8% | Visual Weed Control (%) - 19 DAA LEFCH Obs (LEFCH; 32 g ae/ha alone): 10% | Visual Weed Control (%) - 20 DAA ECHCG Obs (ECHCG; 4.38 g ae/ha alone): 60% and 70% | Visual Weed Control (%) - 19 DAA ECHCG Obs (ECHCG; 8 g ae/ha alone): 85% | Visual Weed Control (%) - 20 DAA ECHCG Obs (ECHCG; 8 g ae/ha alone): 70% | Visual Weed Control (%) - 22 DAA ECHCG Obs (ECHCG; 8 g ae/ha alone): 50% | Visual Weed Control (%) - 20 DAA ECHCG Obs (ECHCG; 8.75 g ae/ha alone): 85% and 80% | Visual Weed Control (%) - 19 DAA ECHCG Obs (ECHCG; 16 g ae/ha alone): 85% | Visual Weed Control (%) - 22 DAA ECHCG Obs (ECHCG; 16 g ae/ha alone): 60% | Visual Weed Control (%) - 20 DAA ECHCG Obs (ECHCG; 17.5 g ae/ha alone): 90% and 95% | Visual Weed Control (%) - 21 DAA ECHCG Obs (ECHCG; 4.38 g ae/ha alone): 70% | Visual Weed Control (%) - 21 DAA ECHCG Obs (ECHCG; 8.75 g ae/ha alone): 85% | Visual Weed Control (%) - 21 DAA ECHCG Obs (ECHCG; 17.5 g ae/ha alone): 90% | Visual Weed Control (%) - 22 DAA ECHCG Obs (ECHCG; 22 DAA, 8 g ae/ha alone): 45% and 50% | Visual Weed Control (%) - 22 DAA ECHCG Obs (ECHCG; 22 DAA, 16 g ae/ha alone): 60% | Visual Weed Control (%) - 22 DAA ECHCG Obs (ECHCG; 22 DAA, 32 g ae/ha alone): 90% and 95% | Visual Weed Control (%) - 19 DAA ECHCG Obs (ECHCG; 32 g ae/ha alone): 95%

CC(c1ccc(C(F)(F)F)nc1)S(C)(=O)=NC#N (centres unmarked) [Sulfoxaflor, N-[methyloxido[1-[6-(trifluoromethyl)-3-pyridinyl]ethyl]-λ^4-sulfanylidene]cyanamide]
Visual Weed Control (%) - 19 DAA CYPRO Obs (CYPRO; 37.5 g ai/ha alone): 0% | Visual Weed Control (%) - 19 DAA CYPRO Obs (CYPRO; 75 g ai/ha alone): 0% | Visual Weed Control (%) - 19 DAA CYPRO Obs (CYPRO; 150 g ai/ha alone): 0% | Visual Weed Control (%) - 19 DAA LEFCH Obs (LEFCH; 150 g ai/ha alone): 0%

COc1c(Cl)ccc(-c2nc(C(=O)O)c(Cl)c(N)c2F)c1F [Compound A Acid, 4-amino-3-chloro-6-(4-chloro-2-fluoro-3-methoxyphenyl)-5-fluoropyridine-2-carboxylic acid]
Visual Weed Control (%) - 20 DAA ECHCG Obs (ECHCG; 4.38 g ae/ha alone): 60% | Visual Weed Control (%) - 20 DAA ECHCG Obs (ECHCG; 5.3 g ae/ha alone): 65% | Visual Weed Control (%) - 20 DAA ECHCG Obs (ECHCG; 8.75 g ae/ha alone): 80% | Visual Weed Control (%) - 20 DAA ECHCG Obs (ECHCG; 10.6 g ae/ha alone): 90% | Visual Weed Control (%) - 20 DAA ECHCG Obs (ECHCG; 17.5 g ae/ha alone): 95% | Visual Weed Control (%) - 21 DAA ECHCG Obs (ECHCG; 5.3 g ae/ha alone): 65% | Visual Weed Control (%) - 21 DAA ECHCG Obs (ECHCG; 10.6 g ae/ha alone): 85% | Visual Weed Control (%) - 21 DAA ECHCG Obs (ECHCG; 21.2 g ae/ha alone): 95% | Visual Weed Control (%) - 20 DAA ECHCG Obs (ECHCG; 21.2 g ae/ha alone): 95%
